Measurements from patent US4190666A, “Anti-inflammatory 4,5-diarly-2-(substituted-thio)imidazoles and their corresponding sulfoxides and sulfones” (E. I. Du Pont de Nemours and Company, priority 1978, dated 1980).
Where two headings read alike, the source gives them in different places.

What was measured:
[1] = test system: phenylquinone writhing syndrome; assay: Phenylquinone writhing test (analgesic activity); format: in vivo, female white mice; settings: oral; for ED50: Mus musculus, 1% methylcellulose, Tables VIII and IX, read-out: ED50 (effective analgesic dose for 50% of the mice); for peak time: time of peak action
Protocol: Phenylquinone Writhing Test A standard procedure for detecting and comparing the analgesic activity of compounds in this series for which there is good correlation with human efficacy is the standard phenylquinone writhing test modified from Siegmund, et al., Proc. Soc. Exp. Biol. Med. 95, 729 (1957). […] Aqueous (0.01% phenyl-p-benzoquinone) phenylquinone was injected intraperitoneally at 24 minutes later using 0.20 ml per mouse. […] The effective analgesic dose for 50% of the mice (ED50) was calculated by the moving average method of Thompson, W. R., Bact. Rev. 11, 115-145 (1947); also time of peak action was determined for many of the compounds.

[2] = test system: established adjuvant-induced arthritis in rats; assay: Established adjuvant-induced arthritis in rats (therapeutic, paw volume); format: in vivo, Charles River Lewis male rats; settings: for ED50: Rattus norvegicus, read-out: Adjuvant Arthritis (ED50%); for ED50 / Adjuvant Arthritis (ED50%): established arthritis, 7 daily doses, ED50% decrease from control paw volume, Tables I-III

Row | SMILES | ED50 ([2]; po) | also measured
1 | COc1ccc(-c2nc([S+]([O-])CC(F)(F)F)[nH]c2-c2ccc(OC)cc2)cc1 (centres unmarked) [Example 5, 4,5-bis(4-Methoxyphenyl)-2-(2,2,2-trifluoroethylsulfinyl)-imidazole] | 10 mg/kg | ED50 [1]: 0.86 mg/kg; peak time [1]: 60 min
2 | COc1ccc(-c2nc(S(=O)(=O)C(F)(F)F)[nH]c2-c2ccc(OC)cc2)cc1 [Example 127, 4,5-bis(4-methoxyphenyl)-2-(trifluoromethylsulfonyl)imidazole] | 0.33 mg/kg | ED50 [1]: 0.045 mg/kg; peak time [1]: 240 min
3 | COc1ccc(-c2nc([S+]([O-])C(F)(F)C(F)F)[nH]c2-c2ccc(OC)cc2)cc1 (centres unmarked) [Example 65] | 2.4 mg/kg | ED50 [1]: 0.8 mg/kg
4 | COc1ccc(-c2[nH]c(S(=O)(=O)C(F)(F)C(F)F)nc2-c2ccc(F)cc2)cc1 [Example 133] | 2.2 mg/kg | ED50 [1]: 0.27 mg/kg
5 | O=S(=O)(c1nc(-c2ccccc2)c(-c2ccccc2)[nH]1)C(F)(F)C(F)F [Example 60, 4,5-diphenyl-2-(1,1,2,2-tetrafluoroethylsulfonyl)imidazole] | 0.13 mg/kg | ED50 [1]: 0.48 mg/kg; peak time [1]: 120 min
6 | COc1ccc(-c2nc(S(=O)(=O)C(F)(F)C(F)F)[nH]c2-c2ccc(OC)cc2)cc1 [Example 64, 4,5-bis(4-methoxyphenyl)-2-(1,1,2,2-tetrafluoroethylsulfonyl)imidazole] | 1.1 mg/kg | ED50 [1]: 0.11 mg/kg; peak time [1]: 120 min
7 | COc1ccc(-c2nc(S(=O)(=O)C(F)(F)C(F)Br)[nH]c2-c2ccc(OC)cc2)cc1 (centres unmarked) [Example 95] | 2.4 mg/kg | ED50 [1]: 2.8 mg/kg
8 | COc1ccc(-c2nc(S(=O)(=O)CC(F)(F)F)[nH]c2-c2ccc(OC)cc2)cc1 [Example 6, 4,5-bis(4-Methoxyphenyl)-2-(2,2,2-trifluoroethylsulfonyl)-imidazole] | 3.8 mg/kg | ED50 [1]: 0.58 mg/kg; peak time [1]: 60 min
9 | COc1ccc(-c2nc(S(=O)(=O)C(F)(F)F)[nH]c2-c2ccc(F)cc2)cc1 [Example 130] | 1.4 mg/kg | ED50 [1]: 0.1 mg/kg
10 | COc1ccc(-c2nc(S(=O)(=O)C(F)F)[nH]c2-c2ccc(OC)cc2)cc1 [Example 74] | 0.5 mg/kg | ED50 [1]: 1.5 mg/kg
11 | COc1ccc(-c2nc(SC(F)(F)C(F)Br)[nH]c2-c2ccc(OC)cc2)cc1 (centres unmarked) [Example 51, 2-(2-bromo-1,1,2-trifluoroethylthio)-4,5-bis(4-methoxyphenyl)imidazole] | – | Adjuvant Arthritis (ED50%) ([2]; oral): 10 mg/kg
12 | O=S(=O)(CC(F)(F)F)c1nc(-c2ccc(Cl)cc2)c(-c2ccc(Cl)cc2)[nH]1 [Example 9, 4,5-bis(4-Chlorophenyl)-2-(2,2,2-trifluoroethylsulfonyl)imidazole] | 4.5 mg/kg | –
13 | CSc1nc(-c2ccccc2)c(-c2ccc(Cl)c(Cl)c2)[nH]1 [Example 112] | – | percent (%) reduction in paw volume measured at the indicated dose ([2]; 25 mg./kg., oral): 62%
14 | COc1ccc(-c2nc(SCC(F)(F)F)[nH]c2-c2ccc(OC)cc2)cc1 [Example 4, 4,5-bis-(4-Methoxyphenyl)-2-(2,2,2-trifluoroethylthio)imidazole] | 20 mg/kg | ED50 [1]: 1.2 mg/kg; peak time [1]: 240 min
15 | CC[S+]([O-])c1nc(-c2ccc(OC)cc2)c(-c2ccc(OC)cc2)[nH]1 (centres unmarked) [Example 13, 2-Ethylsulfinyl-4,5-bis(4-methoxyphenyl)imidazole] | 10 mg/kg | –
16 | CSc1nc(-c2ccc(Cl)cc2)c(-c2ccc(Cl)cc2)[nH]1 [Example 26, 4,5-bis(4-chlorophenyl)-2-methylthioimidazole] | 3 mg/kg | –
17 | O=S(=O)(CC(F)(F)F)c1nc(-c2ccc(F)cc2)c(-c2ccc(F)cc2)[nH]1 [Example 70] | 3.5 mg/kg | –
18 | COc1ccc(-c2[nH]c(S(=O)(=O)C(F)(F)C(F)F)nc2-c2ccccc2Cl)cc1 [Example 83] | 7.2 mg/kg | ED50 [1]: 0.56 mg/kg; peak time [1]: 60 min
19 | FC(F)Sc1nc(-c2ccccc2)c(-c2ccccc2)[nH]1 [Example 30] | 21 mg/kg | –
20 | COc1ccc(-c2nc(S(=O)(=O)C(F)(F)CF)[nH]c2-c2ccc(OC)cc2)cc1 [Example 125, 4,5-bis(4-methoxyphenyl)-2-(1,1,2-trifluoroethylsulfonyl)imidazole] | 5 mg/kg | ED50 [1]: 0.25 mg/kg; peak time [1]: 160 min
21 | C[S+]([O-])c1nc(-c2ccc(Cl)cc2)c(-c2ccc(Cl)cc2)[nH]1 (centres unmarked) [Example 59] | 2.3 mg/kg | –
22 | COc1ccc(-c2nc(SC(F)(F)F)[nH]c2-c2ccc(OC)cc2)cc1 [Example 107] | 1.5 mg/kg | –
23 | C=CCS(=O)(=O)c1nc(-c2ccc(OC)cc2)c(-c2ccc(OC)cc2)[nH]1 [Example 55] | 11 mg/kg | –
24 | CS(=O)(=O)c1nc(-c2ccccc2)c(-c2ccc(F)cc2)[nH]1 [Example 141] | – | percent (%) reduction in paw volume measured at the indicated dose ([2]; 9 mg./kg., oral): 26%
25 | COc1ccc(-c2nc([S+]([O-])CC(C)=O)[nH]c2-c2ccc(OC)cc2)cc1 (centres unmarked) [Example 98] | 56 mg/kg | –
26 | O=[N+]([O-])c1ccc(-c2nc(S(=O)(=O)C(F)(F)C(F)F)[nH]c2-c2ccc([N+](=O)[O-])cc2)cc1 [Example 135] | – | ED50 ([2]; oral): 8.5 mg/kg
27 | CS(=O)(=O)c1nc(-c2ccccc2)c(-c2cccc(Cl)c2)[nH]1 [Example 149] | – | percent (%) reduction in paw volume measured at the indicated dose ([2]; 10 mg./kg., oral): 55%
28 | COc1ccc(-c2nc(SC(F)F)[nH]c2-c2ccc(OC)cc2)cc1 [Example 29] | 1.8 mg/kg | –

Row | SMILES | ED50 ([2]; po) | also measured
29 | O=S(=O)(c1nc(-c2ccccc2)c(-c2ccc(Cl)c(Cl)c2)[nH]1)C(F)(F)C(F)F [Example 137, 4(or 5)-(3,4-dichlorophenyl)-5(or 4)-phenyl-2-(1,1,2,2-tetrafluoroethylsulfonyl)imidazole] | 0.25 mg/kg | –
30 | FC(Cl)C(F)(F)Sc1nc(-c2ccccc2)c(-c2ccccc2)[nH]1 (centres unmarked) [Example 41] | – | Adjuvant Arthritis (ED50%) ([2]; oral): 3.9 mg/kg
31 | CSc1nc(-c2ccc(F)cc2)c(-c2ccc(C(F)(F)F)cc2)[nH]1 [Example 35] | 17 mg/kg | –
32 | CCCSc1nc(-c2ccc(OC)cc2)c(-c2ccc(OC)cc2)[nH]1 [Example 27] | 9 mg/kg | –
33 | O=S(=O)(c1nc(-c2ccccc2)c(-c2ccccc2)[nH]1)C(F)(F)C(F)Br (centres unmarked) [Example 126] | 0.85 mg/kg | –
34 | CCSc1nc(-c2ccc(OC)cc2)c(-c2ccc(OC)cc2)[nH]1 [Example 10, 2-Ethylthio-4,5-bis(4-methoxyphenyl)imidazole] | 4.7 mg/kg | –
35 | [O-][S+](CC(F)(F)F)c1nc(-c2ccccc2)c(-c2ccccc2)[nH]1 (centres unmarked) [Example 2, 4,5-Diphenyl-2-(2,2,2-trifluoroethylsulfinyl)imidazole] | 48 mg/kg | –
36 | CS(=O)(=O)c1nc(-c2ccc(Cl)cc2)c(-c2ccc(Cl)cc2)[nH]1 [Example 67] | 2 mg/kg | –
37 | CCCCSc1nc(-c2ccc(F)cc2)c(-c2ccc(F)cc2)[nH]1 [Example 108] | – | percent (%) reduction in paw volume measured at the indicated dose ([2]; 10 mg./kg., oral): 77%
38 | CS(=O)(=O)c1nc(-c2ccccc2)c(-c2cccc(F)c2)[nH]1 [Example 147] | – | percent (%) reduction in paw volume measured at the indicated dose ([2]; 75 mg./kg., oral): 32%
39 | CCCS(=O)(=O)c1nc(-c2ccc(OC)cc2)c(-c2ccc(OC)cc2)[nH]1 [Example 62] | 9 mg/kg | –
40 | CS(=O)(=O)c1nc(-c2ccccc2)c(-c2ccc(Cl)c(Cl)c2)[nH]1 [Example 145] | – | percent (%) reduction in paw volume measured at the indicated dose ([2]; 50 mg./kg., oral): 59%
41 | Fc1ccc(-c2nc(SC(F)(F)C(F)F)[nH]c2-c2ccc(F)cc2)cc1 [Example 40] | 0.075 mg/kg | –
42 | CS(=O)(=O)c1nc(-c2ccc(Cl)cc2)c(-c2ccc(C(F)(F)F)cc2)[nH]1 [Example 88] | 2.2 mg/kg | –
43 | CCOc1ccc(-c2[nH]c(SC)nc2-c2ccccc2)cc1 [Example 115] | – | percent (%) reduction in paw volume measured at the indicated dose ([2]; 50 mg./kg., oral): 33%
44 | O=S(=O)(c1nc(-c2ccc(F)cc2)c(-c2ccccc2)[nH]1)C(F)(F)C(F)F [Example 92, 4(or 5)-(4-fluorophenyl)-5(or 4)-phenyl-2-(1,1,2,2-tetrafluoroethylsulfonyl)imidazole] | 0.027 mg/kg | –
45 | Cc1ccc(-c2[nH]c(S(=O)(=O)C(F)(F)C(F)F)nc2-c2ccc(Cl)cc2)cc1 [Example 131] | – | percent (%) reduction in paw volume measured at the indicated dose ([2]; 10 mg./kg., oral): 36%
46 | COc1ccc(-c2nc(S(=O)(=O)C(F)(F)C(F)I)[nH]c2-c2ccc(OC)cc2)cc1 (centres unmarked) [Example 128] | 3 mg/kg | –
47 | CSc1nc(-c2ccc(C(F)(F)F)cc2)c(-c2ccccc2)[nH]1 [Example 34] | 20 mg/kg | –
48 | O=S(=O)(c1nc(-c2ccc(C(F)(F)F)cc2)c(-c2ccccc2)[nH]1)C(F)(F)C(F)F [Example 89] | 2.4 mg/kg | –
49 | O=S(=O)(c1nc(-c2ccccc2)c(-c2ccccc2)[nH]1)C(F)(F)C(Cl)Cl [Example 76] | 1.5 mg/kg | –
50 | CCOc1ccc(-c2[nH]c(S(=O)(=O)C(F)(F)C(F)F)nc2-c2ccccc2)cc1 [Example 142] | 1.5 mg/kg | ED50 [1]: 0.95 mg/kg; peak time [1]: 120 min
51 | O=S(=O)(c1nc(-c2ccccc2)c(-c2cccc(Cl)c2)[nH]1)C(F)(F)C(F)F [Example 144] | 0.05 mg/kg | –
52 | FC(F)C(F)(F)Sc1nc(-c2ccc(C(F)(F)F)cc2)c(-c2ccccc2)[nH]1 [Example 47] | 4.5 mg/kg | –
53 | COc1ccc(-c2nc(S(=O)(=O)C(F)(F)C(F)F)[nH]c2-c2ccccc2)cc1 [Example 82] | 1.1 mg/kg | ED50 [1]: 0.33 mg/kg; peak time [1]: 240 min
54 | C[S+]([O-])c1nc(-c2ccccc2)c(-c2cccc(F)c2)[nH]1 (centres unmarked) [Example 148] | – | percent (%) reduction in paw volume measured at the indicated dose ([2]; 100 mg./kg., oral): 67%
55 | [O-][S+](c1nc(-c2ccc(Cl)cc2)c(-c2ccc(Cl)cc2)[nH]1)C(F)F (centres unmarked) [Example 94] | 0.19 mg/kg | –
